pIC50: −log10 of the molar value.
Assays:
Type in all cases: cell-based
Target C CJ mRNA = test: Gene panel canonical junction qPCR assay, Target C; conditions: protocol of Example 42, read-out: Target C IC50 (decrease in CJ mRNA levels)
Method: (§1) Compounds described herein were used to modulate RNA transcript abundance in cells. The expression of a target mRNA was measured by detecting the formation of an exon-exon junction in the canonical transcript (CJ). A compound mediated exon-inclusion event was detected by observing an increase in formation of a new junction with an alternative exon (AJ). Real-time qPCR assays were used to detect these splicing switches and interrogate the potency of various compounds towards different target genes. A high-throughput real time quantitative PCR (RT-qPCR) assay was developed to measure these two isoforms of the mRNA (CJ and AJ) for an exemplary gene, HTT, together with a control housekeeping gene, GAPDH or GUSB or PPIA, used for normalization. Briefly, the A673 or K562 cell line was treated with various compounds described herein (e.g., compounds of Formula (I)). After treatment, the levels of the HTT mRNA targets were determined from each sample of cell lysate by cDNA synthesis followed by qPCR.
(§2) The A673 cell line was cultured in DMEM with 10% FBS. Cells were diluted with full growth media and plated in a 96-well plate (15,000 cells in 100 ul media per well). The plate was incubated at 37° C. with 5% CO2 for 24 hours to allow cells to adhere. An 11-point 3-fold serial dilution of the compounds was made in DMSO then diluted in media in an intermediate plate. Compounds were transferred from the intermediate plate to the cell plate with the top dose at a final concentration of 10 uM in the well. Final DMSO concentration was kept at or below 0.25%. The cell plate was returned to the incubator at 37° C. with 5% CO2 for an additional 24 hours.
(§3) The K562 cell line was cultured in IMDM with 10% FBS. For K562, cells were diluted with full growth media and plated in either a 96-well plate (50,000 cells in 50 uL media per well) or a 384-well plate (8,000-40,000 cells in 45 uL media per well). An 11-point 3-fold serial dilution of the compounds were made in DMSO then diluted in media in an intermediate plate. Compound was transferred from the intermediate plate to the cell plate with the top dose at a final concentration of 10 uM in the well. Final DMSO concentration was kept at or below 0.25%. Final volume was 100 uL for 96-well plate and 50 uL for 384-well plate. The cell plate was then placed in an incubator at 37° C. with 5% CO2 for 24 hours.
(§4) The data analysis was performed by first determining the ACt vs the housekeeper gene. This ACt was then normalized against the DMSO control (AACt) and converted to RQ (relative quantification) using the 2^(−ΔΔCt) equation. The RQ were then converted to a percentage response by arbitrarily setting an assay window of 3.5 ΔCt for HTT-CJ and an assay window of 9 ΔCt for HTT-AJ. […] The percentage response was then fitted to the 4 parametric logistic equation to evaluate the concentration dependence of compound treatment. The increase in AJ mRNA is reported as AC50 (compound concentration having 50% response in AJ increase) while the decrease in CJ mRNA levels is reported as IC50 (compound concentration having 50% response in CJ decrease).
(§5) Additional studies were carried out for a larger panel of genes using the protocol provided above. The junction between flanking upstream and downstream exons was used to design canonical junction qPCR assays. At least one of the forward primer, reverse primer or the CY5-labeled 5′ nuclease probe (with 3′ quencher such as ZEN/Iowa Black FQ) was designed to overlap with the exon junction to capture the CJ mRNA transcript. BLAST was used to confirm the specificity of the probeset and parameters such as melting temperature, GC content, amplicon size, and primer dimer formation are considered during their design. Data for the decrease in CJ mRNA levels for three exemplary genes (HTT, SMN2, and Target C) analyzed in this panel are reported as IC50 (compound concentration having 50% response in CJ decrease).

[1] = system: HTT mRNA canonical junction (CJ); test: Splicing RT-qPCR assay, decrease of HTT canonical junction (CJ) mRNA; conditions: A673 or K562 cells, 24 hours compound treatment, concentration having 50% response in CJ decrease
Method: as §1, §2, §3
(§6) The cells were then gently washed with 50 uL-100 uL cold PBS before proceeding to addition of lysis buffer. 30 uL-50 uL of room temperature lysis buffer with DNAse I (and optionally RNAsin) was added to each well. Cells were shaken/mixed thoroughly at room temperature for 5-10 minutes for lysis to take place and then 3 uL-5 uL of room temperature stop solution was added and wells were shaken/mixed again. After 2-5 minutes, the cell lysate plate was transferred to ice for RT-qPCR reaction setup. The lysates could also be frozen at −80° C. for later use.
(§7) In some cases, a direct lysis buffer was used. An appropriate volume of 3× lysis buffer (10 mM Tris, 150 mM NaCl, 1.5%-2.5% Igepal and 0.1-1 U/uL RNAsin, pH 7.4) was directly added to either K562 or A673 cells in media and mixed by pipetting 3 times. The plates were then incubated at room temperature with shaking/rocking for 20-50 minutes to allow for lysis to take place. After this time, the cell lysate plate was transferred to ice to set up for the RT-qPCR reactions. The lysates could also be frozen at −80° C. for later use.
(§8) To set up 10 uL RT-qPCR reactions, cell lysates were transferred to 384-well qPCR plates containing the master mix according to the table below. The plates were sealed, gently vortexed, and spun down before the run. The volumes were adjusted accordingly in some instances where the reaction was carried in 20 uL. The table below summarizes the components of the RT-qPCR reactions:
(§9) The RT-qPCR reaction was performed using a QuantStudio (ThermoFisher) under the following fast cycling conditions. […]

[2] = system: HTT mRNA alternative junction (AJ); test: Splicing RT-qPCR assay, increase of HTT alternative junction (AJ) mRNA; conditions: A673 or K562 cells, 24 hours compound treatment, concentration having 50% response in AJ increase
Method: as §1, §2, §3, §6, §7, §8, §9

HTT CJ mRNA = test: Gene panel canonical junction qPCR assay, HTT; conditions: protocol of Example 42, read-out: HTT IC50 (decrease in CJ mRNA levels)
Method: as §1, §2, §3, §4, §5

SMN2 CJ mRNA = test: Gene panel canonical junction qPCR assay, SMN2; conditions: protocol of Example 42, read-out: SMN2 IC50 (decrease in CJ mRNA levels)
Method: as §1, §2, §3, §4, §5

Compound	pIC50 (Target C CJ mRNA)	AC50 [1] [µM]	AC50 [2] [µM]	pIC50 (HTT CJ mRNA)	pIC50 (SMN2 CJ mRNA)
Cc1cn2cc(NC(=O)c3ccc(C4CCN(C)CC4)c4cn(C)nc34)cc(F)c2n1 [Compound 209, N-[8-fluoro-2-methylimidazo[1,2-a]pyridin-6-yl]-2-methyl-4-(1-methylpiperidin-4-yl)indazole-7-carboxamide]	5.00 to 6.00	0.1 to 1	0.1 to 1	6.00 to 7.00	< 5.00
CCN1CCC(c2ccc(C(=O)Nc3cc(F)c4nc(C)cn4c3)c3nn(C)cc23)CC1 [Compound 210, 4-(1-ethylpiperidin-4-yl)-N-[8-fluoro-2-methylimidazo[1,2-a]pyridin-6-yl]-2-methylindazole-7-carboxamide]	5.00 to 6.00	0.1 to 1	0.1 to 1	6.00 to 7.00	> 7.00
Cc1cn2cc(NC(=O)c3ccc(C4C[C@@H](C)N[C@@H](C)C4)c4cn(C)nc34)cc(F)c2n1 (stereo partly drawn) [Compound 211, 4-[(cis-)-2,6-dimethylpiperidin-4-yl]-N-[8-fluoro-2-methylimidazo[1,2-a]pyridin-6-yl]-2-methylindazole-7-carboxamide trifluoroacetic acid]	< 5.00	1 to 10	1 to 10	5.00 to 6.00	> 7.00
Cc1cn2cc(NC(=O)c3ccc(C4CC(C)(C)NC(C)(C)C4)c4cn(C)nc34)cc(F)c2n1 [Compound 212, N-[8-fluoro-2-methylimidazo[1,2-a]pyridin-6-yl]-2-methyl-4-(2,2,6,6-tetramethylpiperidin-4-yl)indazole-7-carboxamide]	< 5.00	1 to 10	> 10	5.00 to 6.00	6.00 to 7.00
Cc1cc2c(N3CCNCC3)ccc(C(=O)Nc3cc(F)c4cn(C)nc4c3)c2o1 [Compound 217, N-(4-fluoro-2-methylindazol-6-yl)-2-methyl-4-(piperazin-1-yl)-1-benzofuran-7-carboxamide]	< 5.00	1 to 10	1 to 10	5.00 to 6.00	5.00 to 6.00
Cc1cn2cc(NC(=O)c3ccc(N4CCNC(C)C4)c4cn(C)nc34)cc(F)c2n1 (centres unmarked) [Compound 228]	6.00 to 7.00	0.1 to 1	0.1 to 1	6.00 to 7.00	> 7.00
Cc1cn2cc(NC(=O)c3ccc(N4CCN(C)C(C)C4)c4cn(C)nc34)cc(F)c2n1 (centres unmarked) [Compound 229]	5.00 to 6.00	0.1 to 1	0.1 to 1	6.00 to 7.00	> 7.00
Cn1cc2ccc(NC(=O)c3ccc(N4CCNCC4)c4cn(C)nc34)cc2n1 [Compound 230]	< 5.00	> 10	> 10	< 5.00	< 5.00
Cn1cc2c(F)cc(NC(=O)c3ccc(N4CCNCC4)c4cn(C)nc34)cc2n1 [Compound 231]	< 5.00	> 10	> 10	< 5.00	< 5.00
Cc1nc2c(F)cc(NC(=O)c3ccc(N4CCNCC4)c4cn(C)nc34)cc2o1 [Compound 234]	5.00 to 6.00	1 to 10	0.1 to 1	5.00 to 6.00	> 7.00
Cc1nc2c(F)cc(NC(=O)c3ccc(N4CCNCC4)c4cn(C)nc34)cc2s1 [Compound 235]	< 5.00	1 to 10	1 to 10	5.00 to 6.00	> 7.00
Cc1cn2cc(NC(=O)c3ccc(N4CCNCC4)c4cn(C)nc34)cc(C)c2n1 [Compound 238]	< 5.00	1 to 10	1 to 10	5.00 to 6.00	> 7.00
CCC1CN(c2ccc(C(=O)Nc3cc(F)c4nc(C)cn4c3)c3nn(C)cc23)CCN1 (centres unmarked) [Compound 239]	5.00 to 6.00	0.1 to 1	0.1 to 1	6.00 to 7.00	> 7.00
Cc1cn2cc(NC(=O)c3ccc(N4CCNC(C)(C)C4)c4cn(C)nc34)cc(F)c2n1 [Compound 240]	5.00 to 6.00	0.1 to 1	0.1 to 1	6.00 to 7.00	> 7.00
Cc1cn2cc(NC(=O)c3ccc(N4CCNC5(CC5)C4)c4cn(C)nc34)cc(F)c2n1 [Compound 241]	5.00 to 6.00	1 to 10	1 to 10	5.00 to 6.00	> 7.00
Cc1cn2cc(NC(=O)c3ccc(N4CC5(CNC5)C4)c4cn(C)nc34)cc(F)c2n1 [Compound 242]	5.00 to 6.00	0.1 to 1	1 to 10	6.00 to 7.00	> 7.00
Cc1cn2cc(NC(=O)c3ccc(N4CC5(CN(C)C5)C4)c4cn(C)nc34)cc(F)c2n1 [Compound 243]	5.00 to 6.00	0.1 to 1	0.1 to 1	6.00 to 7.00	> 7.00
Cc1cn2cc(NC(=O)c3ccc(N(C)C4CC(C)(C)NC(C)(C)C4)c4cn(C)nc34)cc(F)c2n1 [Compound 244]	< 5.00	> 10	> 10	< 5.00	6.00 to 7.00
Cc1cn2cc(NC(=O)c3ccc(N(C)C4CCN(C)CC4)c4cn(C)nc34)cc(F)c2n1 [Compound 245]	6.00 to 7.00	0.1 to 1	0.1 to 1	6.00 to 7.00	> 7.00
Cc1cn2cc(NC(=O)c3ccc(N4CCNCC4)c4cn(C)nc34)ncc2n1 [Compound 246]	< 5.00	1 to 10	1 to 10	5.00 to 6.00	> 7.00
Cc1cn2nc(NC(=O)c3ccc(N4CCNCC4)c4cn(C)nc34)cc2c(C)n1 [Compound 247]	< 5.00	> 10	> 10	< 5.00	< 5.00
Cc1cn2cc(NC(=O)c3ccc(N4CCC(NC(C)(C)C)C4)c4cn(C)nc34)cc(F)c2n1 (centres unmarked) [Compound 249]	< 5.00	> 10	> 10	< 5.00	> 7.00
